# pIC50: −log10 of the molar value.
# Tests used:
# U-251 = assay: Cell cycle assay (flow cytometry); format: cell-based, human; conditions: 2xIC50, 24-h treatment; control 20.44%
# Description: (§1) The cells were seeded in 35 mm Petri dishes, 200,000 cells per dish, and incubated overnight under standard conditions at 37 °C. […] After a 24-h incubation, the experiment was carried out using a Muse™ Cell Cycle Kit (Millipore) according to the available procedure. Briefly, the cells were detached and collected in Eppendorf tubes. The samples were then washed with cold phosphate-buffered saline (PBS), centrifuged at 300 g (5 min), and fixed in ice-cold 70% ethanol. The cells were stored at -20 °C overnight. The next day, the samples were sequentially washed with cold PBS, centrifuged resuspended in 200 µL of Muse™ Cell Cycle Reagent, and incubated in the dark for 30 min at room temperature. The percentage of cells in specified cell cycle phases was estimated using a Muse™ Cell Analyzer (Millipore). The experiments were carried out three times.
# (§2) When analysing the antiproliferative activity of the tested compounds, we decided to determine the molecular mechanism of action of the most promising derivative 13 in three cell lines with different statuses of p53, for which the derivative has the highest activity. In order to achieve this goal, we started by studying the changes in the cell cycle in order to determine why proliferation stops. To evaluate the effect of derivative 13 on the cell cycle progression, we used flow cytometry. After a 24-h treatment, we observed a significant inhibition in the G2/M phase in both HCT 116 cell lines (Fig. 4A).
# HCT 116 p53-/- = assay: Cell cycle assay (flow cytometry); format: cell-based, human; conditions: 2xIC50, 24-h treatment; control 34.35%
# Description: as §1, §2
# HCT 116 p53+/+ = assay: Cell cycle assay (flow cytometry); format: cell-based, human; conditions: 2xIC50, 24-h treatment; control 30.81%
# Description: as §1, §2
# tested cancer lines = assay: Antiproliferative MTS assay, summary over the panel; format: cell-based; conditions: Homo sapiens; against most of the tested cancer lines
# Description: The cells were seeded in 96-well plates (Nunc) with 5,000 or 4,000 cells per well for the cancer cells and NHDF, respectively, and incubated under standard conditions at 37 °C overnight. The culture media were then changed for freshly prepared solutions of the tested compounds in various concentrations. After 72-h incubation the antiproliferative assay was carried out as follows: the solutions of the compounds were changed in each well to 100 µL DMEM without phenol red and 20 µL of CellTiter 96 AQueous One Solution-MTS (Promega). The plates were incubated for 1 h at 37 °C, and the absorbance was then measured at 490 nm using a multi-plate reader (Synergy 4, BioTek). The experiment for each sample was repeated at least three times. The results are presented as the half-maximal inhibitory concentration (IC50) values, which were estimated in comparison to untreated cells (control) and calculated using GraphPad Prism v.8.0 (USA).
# However, the antiproliferative activity of derivative 13 with furan a ring was surprising. […] For this purpose, we selected two pancreatic cancer cell lines: AsPC-1, which is characterised by a deletion of the p53 protein[20] and PANC-1, which carries an R273H mutation. […] In light of the above-mentioned facts, we also determined the cytotoxicity of the GLUT inhibitor BAY-876, which is based on a quinoline scaffold. […]
# p21 = assay: Western blot, p21 protein level; format: cell-based, human; conditions: HCT 116 p53+/+, 0.5 and 1 µM, 24 and 48-h
# Description: The cells (500,000) were seeded in 35 mm Petri dishes (Nunc) and incubated in a solution of the tested compound (0.5 µM and 1 µM) for 24 h and 48 h. The cells were then dissociated using trypsin, collected in Eppendorf tubes, and centrifuged at 2,000 rpm. Next, cell pellets were resuspended in complete RIPA buffer containing a Halt Protease Inhibitor Cocktail and Halt Phosphatase Inhibitor Cocktail along with 0.5 M EDTA (all reagents from Thermo Fisher Scientific) and lysed on ice for 20 min. Afterward, the lysates were sonicated and centrifuged at 10,000 rpm for 10 min at 4 °C. The obtained supernatants were collected for further analysis. The protein concentration was determined using a Micro BCA™ Protein Assay Kit (Thermo Fisher Scientific) according to the manufacturer’s procedure. Equal amounts of proteins (16 µg) were electrophoresed on SDS-Page gels and transferred onto nitrocellulose membranes. Novex Sharp Pre-Stained Protein Standard (Thermo Fisher Scientific) was used as a colored molecular weight marker. […]
# The overexpression of p21 also causes cell cycle inhibition via its binding to the […]. […] The cell cycle in the U-251 cell line was inhibited precisely in the S-phase, and it is, therefore, likely that the p21 protein expression was not detected in the glioma cells tested (data not shown).
smiles,measurement,setting,value
O=[N+]([O-])c1ccc(/C=C/c2ccnc3ccccc23)o1 [Compound 13],percentage of cells in S phase,U-251,35.59%
same,population of cells in G2/M phase,HCT 116 p53-/-,44.95%
same,population of cells in G2/M phase,HCT 116 p53+/+,49.78%
same,pIC50,tested cancer lines,> 7.00
same,p21 protein expression vs control,p21,more than two-fold increase

# Source: article PMC11574108, “4-Furanylvinylquinoline derivative as a new scaffold for the design of oxidative stress initiator and glucose transporter inhibitor drugs” (Scientific Reports, 2024)
